Laboratory results reported in the CheMixHub viscosity set.
Several values for one entry are separate records, joined by “and”; a condition that tells them apart may be missing. Equal entries are not always repeated. ± gives the uncertainty stated by the source.

Experiment: xn = mol fraction of the nth substance listed

CC(C)C(=O)O + O
Conditions | viscosity
293.15 K, 101.33 kPa, x1 = 0.011 | 1.181 ± 0.012 mPa·s
293.15 K, 101.33 kPa, x1 = 0.0222 | 1.448 ± 0.014 mPa·s
293.15 K, 101.33 kPa, x1 = 0.0348 | 1.558 ± 0.016 mPa·s
293.15 K, 101.33 kPa, x1 = 0.0486 | 1.779 ± 0.018 mPa·s
299.35 K, 101.33 kPa, x1 = 0.11 | 2.904 ± 0.021 mPa·s
299.36 K, 101.33 kPa, x1 = 0.11 | 2.896 ± 0.021 mPa·s
299.37 K, 101.33 kPa, x1 = 0.11 | 2.882 ± 0.021 mPa·s
299.38 K, 101.33 kPa, x1 = 0.11 | 2.868 ± 0.021 mPa·s
299.39 K, 101.33 kPa, x1 = 0.11 | 2.846 ± 0.021 mPa·s and 2.836 ± 0.021 mPa·s
299.4 K, 101.33 kPa, x1 = 0.11 | 2.813 ± 0.021 mPa·s
299.43 K, 101.33 kPa, x1 = 0.11 | 2.767 ± 0.02 mPa·s
299.45 K, 101.33 kPa, x1 = 0.11 | 2.751 ± 0.02 mPa·s
299.48 K, 101.33 kPa, x1 = 0.11 | 2.711 ± 0.02 mPa·s
299.5 K, 101.33 kPa, x1 = 0.11 | 2.69 ± 0.02 mPa·s
299.56 K, 101.33 kPa, x1 = 0.11 | 2.645 ± 0.02 mPa·s
299.64 K, 101.33 kPa, x1 = 0.11 | 2.606 ± 0.019 mPa·s
299.72 K, 101.33 kPa, x1 = 0.11 | 2.571 ± 0.019 mPa·s
299.85 K, 101.33 kPa, x1 = 0.11 | 2.541 ± 0.019 mPa·s
299.96 K, 101.33 kPa, x1 = 0.11 | 2.506 ± 0.019 mPa·s
300.15 K, 101.33 kPa, x1 = 0.11 | 2.466 ± 0.018 mPa·s
300.4 K, 101.33 kPa, x1 = 0.11 | 2.422 ± 0.018 mPa·s
301.15 K, 101.33 kPa, x1 = 0.11 | 2.317 ± 0.017 mPa·s
302.15 K, 101 kPa, x1 = 0.0106 | 0.9416 ± 0.0059 mPa·s
302.15 K, 101 kPa, x1 = 0.0222 | 1.066 ± 0.0065 mPa·s
302.15 K, 101 kPa, x1 = 0.0348 | 1.21 ± 0.0073 mPa·s
302.15 K, 101 kPa, x1 = 0.0486 | 1.388 ± 0.0083 mPa·s
302.15 K, 101 kPa, x1 = 0.0545 | 1.469 ± 0.0087 mPa·s
302.15 K, 101 kPa, x1 = 0.0638 | 1.6 ± 0.0094 mPa·s
302.15 K, 101 kPa, x1 = 0.0737 | 1.74 ± 0.01 mPa·s
302.15 K, 101 kPa, x1 = 0.0806 | 1.837 ± 0.011 mPa·s
302.15 K, 101 kPa, x1 = 0.0915 | 1.999 ± 0.012 mPa·s
302.15 K, 101 kPa, x1 = 0.1114 | 2.213 ± 0.013 mPa·s
302.15 K, 101 kPa, x1 = 0.12 | 2.285 ± 0.013 mPa·s
302.15 K, 101 kPa, x1 = 0.129 | 2.348 ± 0.013 mPa·s
302.15 K, 101 kPa, x1 = 0.1433 | 2.423 ± 0.014 mPa·s
302.15 K, 101 kPa, x1 = 0.1698 | 2.499 ± 0.014 mPa·s
302.15 K, 101 kPa, x1 = 0.1999 | 2.568 ± 0.015 mPa·s
302.15 K, 101 kPa, x1 = 0.2347 | 2.614 ± 0.015 mPa·s
302.15 K, 101 kPa, x1 = 0.323 | 2.632 ± 0.015 mPa·s
302.15 K, 101 kPa, x1 = 0.4499 | 2.493 ± 0.014 mPa·s
302.15 K, 101 kPa, x1 = 0.4996 | 2.403 ± 0.014 mPa·s
302.15 K, 101 kPa, x1 = 0.7953 | 1.685 ± 0.0098 mPa·s
302.15 K, 101 kPa, x1 = 0.9529 | 1.27 ± 0.0076 mPa·s
302.27 K, 101.33 kPa, x1 = 0.11 | 2.211 ± 0.017 mPa·s
303.11 K, 101.33 kPa, x1 = 0.11 | 2.144 ± 0.016 mPa·s
303.15 K, 101.33 kPa, x2 = 0.352 | 1.51 ± 0.04 mPa·s
303.15 K, 101.33 kPa, x2 = 0.55 | 2.12 ± 0.056 mPa·s
303.15 K, 101.33 kPa, x2 = 0.677 | 2.43 ± 0.064 mPa·s
303.15 K, 101.33 kPa, x2 = 0.765 | 2.51 ± 0.066 mPa·s
303.15 K, 101.33 kPa, x2 = 0.83 | 2.42 ± 0.064 mPa·s
303.15 K, 101.33 kPa, x2 = 0.88 | 2 ± 0.053 mPa·s
303.15 K, 101.33 kPa, x2 = 0.919 | 1.58 ± 0.042 mPa·s
303.15 K, 101.33 kPa, x2 = 0.951 | 1.28 ± 0.034 mPa·s
303.15 K, 101.33 kPa, x2 = 0.978 | 1.02 ± 0.027 mPa·s
304.12 K, 101.33 kPa, x1 = 0.11 | 2.07 ± 0.016 mPa·s
305.07 K, 101.33 kPa, x1 = 0.11 | 2.003 ± 0.015 mPa·s
305.15 K, 101 kPa, x1 = 0.0106 | 0.8833 ± 0.0056 mPa·s
305.15 K, 101 kPa, x1 = 0.0222 | 0.9974 ± 0.0062 mPa·s
305.15 K, 101 kPa, x1 = 0.0348 | 1.127 ± 0.0069 mPa·s
305.15 K, 101 kPa, x1 = 0.0486 | 1.284 ± 0.0077 mPa·s
305.15 K, 101 kPa, x1 = 0.0545 | 1.355 ± 0.0081 mPa·s
305.15 K, 101 kPa, x1 = 0.0638 | 1.469 ± 0.0087 mPa·s
305.15 K, 101 kPa, x1 = 0.0737 | 1.59 ± 0.0094 mPa·s
305.15 K, 101 kPa, x1 = 0.0806 | 1.673 ± 0.0098 mPa·s
305.15 K, 101 kPa, x1 = 0.0915 | 1.799 ± 0.01 mPa·s
305.15 K, 101 kPa, x1 = 0.1114 | 1.993 ± 0.011 mPa·s
305.15 K, 101 kPa, x1 = 0.12 | 2.06 ± 0.012 mPa·s
305.15 K, 101 kPa, x1 = 0.129 | 2.117 ± 0.012 mPa·s
305.15 K, 101 kPa, x1 = 0.1433 | 2.18 ± 0.013 mPa·s
305.15 K, 101 kPa, x1 = 0.1698 | 2.271 ± 0.013 mPa·s
305.15 K, 101 kPa, x1 = 0.1999 | 2.339 ± 0.013 mPa·s
305.15 K, 101 kPa, x1 = 0.2347 | 2.388 ± 0.014 mPa·s
305.15 K, 101 kPa, x1 = 0.323 | 2.423 ± 0.014 mPa·s
305.15 K, 101 kPa, x1 = 0.4499 | 2.32 ± 0.013 mPa·s
305.15 K, 101 kPa, x1 = 0.4996 | 2.244 ± 0.013 mPa·s
305.15 K, 101 kPa, x1 = 0.6404 | 1.959 ± 0.011 mPa·s
305.15 K, 101 kPa, x1 = 0.7953 | 1.597 ± 0.0094 mPa·s
305.15 K, 101 kPa, x1 = 0.9529 | 1.214 ± 0.0073 mPa·s
306.72 K, 101.33 kPa, x1 = 0.11 | 1.907 ± 0.014 mPa·s
307.67 K, 101.33 kPa, x1 = 0.11 | 1.855 ± 0.014 mPa·s
308.15 K, 101 kPa, x1 = 0.0106 | 0.8203 ± 0.0052 mPa·s
308.15 K, 101 kPa, x1 = 0.0222 | 0.9263 ± 0.0058 mPa·s
308.15 K, 101 kPa, x1 = 0.0348 | 1.049 ± 0.0065 mPa·s
308.15 K, 101 kPa, x1 = 0.0486 | 1.194 ± 0.0072 mPa·s
308.15 K, 101 kPa, x1 = 0.0545 | 1.259 ± 0.0076 mPa·s
308.15 K, 101 kPa, x1 = 0.0638 | 1.361 ± 0.0082 mPa·s
308.15 K, 101 kPa, x1 = 0.0737 | 1.468 ± 0.0087 mPa·s
308.15 K, 101 kPa, x1 = 0.0806 | 1.541 ± 0.0091 mPa·s
308.15 K, 101 kPa, x1 = 0.0915 | 1.651 ± 0.0097 mPa·s
308.15 K, 101 kPa, x1 = 0.1114 | 1.827 ± 0.011 mPa·s
308.15 K, 101 kPa, x1 = 0.12 | 1.878 ± 0.011 mPa·s
308.15 K, 101 kPa, x1 = 0.129 | 1.927 ± 0.011 mPa·s
308.15 K, 101 kPa, x1 = 0.1433 | 1.99 ± 0.011 mPa·s
308.15 K, 101 kPa, x1 = 0.1698 | 2.077 ± 0.012 mPa·s
308.15 K, 101 kPa, x1 = 0.1999 | 2.144 ± 0.012 mPa·s
308.15 K, 101 kPa, x1 = 0.2347 | 2.195 ± 0.013 mPa·s
308.15 K, 101 kPa, x1 = 0.323 | 2.24 ± 0.013 mPa·s
308.15 K, 101 kPa, x1 = 0.4499 | 2.156 ± 0.012 mPa·s
308.15 K, 101 kPa, x1 = 0.4996 | 2.089 ± 0.012 mPa·s
308.15 K, 101 kPa, x1 = 0.6404 | 1.837 ± 0.011 mPa·s
308.15 K, 101 kPa, x1 = 0.7953 | 1.504 ± 0.0089 mPa·s
308.15 K, 101 kPa, x1 = 0.9529 | 1.155 ± 0.007 mPa·s
311.15 K, 101 kPa, x1 = 0.0106 | 0.765 ± 0.0049 mPa·s
311.15 K, 101 kPa, x1 = 0.0222 | 0.8626 ± 0.0054 mPa·s
313.15 K, 101.33 kPa, x1 = 0.011 | 0.767 ± 0.0077 mPa·s
313.15 K, 101.33 kPa, x1 = 0.0222 | 0.907 ± 0.0091 mPa·s
313.15 K, 101.33 kPa, x1 = 0.0348 | 0.965 ± 0.0097 mPa·s
313.15 K, 101.33 kPa, x1 = 0.0486 | 1.094 ± 0.011 mPa·s
